% of inhibition, % of control and % of engagement data for five compounds are collected here from ChEMBL document CHEMBL5465560, “Selectivity Literature for EUbOPEN Chemogenomic Library” (2024).

Experiment [1] has as its target Tyrosine-protein kinase SYK (Homo sapiens, UniProt P43405). In words: Selectivity interaction (ActivX KiNativ screen (ex vivo kinase selectivity in human PBMCs)) EUB0001619a SYK. It is filed as cell-based. The conditions noted are these: PBMC, at 1 µM.
Experiment [2] addresses T1, NUAK family SNF1-like kinase 2 (Homo sapiens) (UniProt Q9H093).
T1 sequence (whole entry): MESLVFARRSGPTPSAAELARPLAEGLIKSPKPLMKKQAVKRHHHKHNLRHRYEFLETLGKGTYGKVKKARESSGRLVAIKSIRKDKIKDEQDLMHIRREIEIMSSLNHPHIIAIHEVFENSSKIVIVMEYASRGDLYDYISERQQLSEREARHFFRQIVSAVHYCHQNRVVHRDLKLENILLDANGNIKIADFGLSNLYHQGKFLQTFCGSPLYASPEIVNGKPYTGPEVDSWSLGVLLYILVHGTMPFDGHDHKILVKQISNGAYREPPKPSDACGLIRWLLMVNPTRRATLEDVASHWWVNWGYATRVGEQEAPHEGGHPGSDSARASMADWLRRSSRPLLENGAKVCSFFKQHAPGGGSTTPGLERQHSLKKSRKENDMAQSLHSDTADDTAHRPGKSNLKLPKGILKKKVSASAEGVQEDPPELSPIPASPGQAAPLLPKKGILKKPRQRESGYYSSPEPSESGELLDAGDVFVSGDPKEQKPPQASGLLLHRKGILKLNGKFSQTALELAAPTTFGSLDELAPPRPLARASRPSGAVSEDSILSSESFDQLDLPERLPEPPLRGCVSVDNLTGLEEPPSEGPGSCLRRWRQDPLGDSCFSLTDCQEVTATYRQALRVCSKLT
Nature of the experiment: Selectivity interaction (KinomeScan (DiscoverX)) EUB0001619a NUAK2. The conditions noted are these: at 1 µM.

In experiment [3] the target is Glycogen synthase kinase-3 alpha (Homo sapiens, UniProt P49840). Particulars: at 10 µM.
Glycogen synthase kinase-3 alpha, sequence (P49840 2-483 limits assumed): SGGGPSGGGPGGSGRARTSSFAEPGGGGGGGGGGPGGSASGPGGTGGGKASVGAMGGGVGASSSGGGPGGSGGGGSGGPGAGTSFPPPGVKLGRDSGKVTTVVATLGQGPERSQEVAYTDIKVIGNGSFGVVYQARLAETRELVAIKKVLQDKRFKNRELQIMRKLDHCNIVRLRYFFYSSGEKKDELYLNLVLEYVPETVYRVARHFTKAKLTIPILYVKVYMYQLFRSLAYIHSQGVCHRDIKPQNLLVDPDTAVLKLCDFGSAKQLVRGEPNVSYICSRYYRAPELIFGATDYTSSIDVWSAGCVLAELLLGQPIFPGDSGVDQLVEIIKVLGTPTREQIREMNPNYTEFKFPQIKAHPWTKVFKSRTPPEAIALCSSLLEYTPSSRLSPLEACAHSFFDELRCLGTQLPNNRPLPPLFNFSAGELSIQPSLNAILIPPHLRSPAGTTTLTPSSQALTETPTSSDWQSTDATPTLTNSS
Experiment [4] addresses T2, Serine/threonine-protein kinase haspin (Homo sapiens) (UniProt Q8TF76).
T2 sequence (whole entry): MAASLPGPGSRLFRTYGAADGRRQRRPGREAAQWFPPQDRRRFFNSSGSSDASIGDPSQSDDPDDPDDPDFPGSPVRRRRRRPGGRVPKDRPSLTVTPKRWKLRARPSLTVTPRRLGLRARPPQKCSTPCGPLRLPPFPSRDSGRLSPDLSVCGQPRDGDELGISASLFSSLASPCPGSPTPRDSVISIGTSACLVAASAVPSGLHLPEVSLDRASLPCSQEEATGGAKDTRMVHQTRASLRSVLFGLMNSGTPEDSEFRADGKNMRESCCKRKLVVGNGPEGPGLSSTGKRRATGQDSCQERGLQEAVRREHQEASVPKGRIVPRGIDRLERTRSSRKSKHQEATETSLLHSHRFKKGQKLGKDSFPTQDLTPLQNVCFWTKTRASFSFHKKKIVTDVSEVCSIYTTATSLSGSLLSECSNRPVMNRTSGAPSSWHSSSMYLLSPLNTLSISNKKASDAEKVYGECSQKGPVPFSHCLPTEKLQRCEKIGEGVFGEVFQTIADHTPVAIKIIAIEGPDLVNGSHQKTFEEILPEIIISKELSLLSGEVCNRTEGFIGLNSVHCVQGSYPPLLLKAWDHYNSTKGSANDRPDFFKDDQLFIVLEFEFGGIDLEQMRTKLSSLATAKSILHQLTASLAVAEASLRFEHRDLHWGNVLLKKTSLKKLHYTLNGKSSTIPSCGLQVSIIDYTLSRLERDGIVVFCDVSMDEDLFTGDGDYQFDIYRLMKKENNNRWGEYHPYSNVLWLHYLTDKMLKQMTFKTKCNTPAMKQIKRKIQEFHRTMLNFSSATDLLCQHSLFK
Nature of the experiment: Selectivity interaction (Kinase panel (Invitrogen)) EUB0000639a GSG2. Particulars: at 200 nM.

The target of experiment [5] is SRSF protein kinase 2 (Homo sapiens) (UniProt P78362). Nature of the experiment: Selectivity interaction (ProQinase) EUB0000171b SRPK2.
SRSF protein kinase 2 (Homo sapiens), sequence (P78362 whole entry, looked up): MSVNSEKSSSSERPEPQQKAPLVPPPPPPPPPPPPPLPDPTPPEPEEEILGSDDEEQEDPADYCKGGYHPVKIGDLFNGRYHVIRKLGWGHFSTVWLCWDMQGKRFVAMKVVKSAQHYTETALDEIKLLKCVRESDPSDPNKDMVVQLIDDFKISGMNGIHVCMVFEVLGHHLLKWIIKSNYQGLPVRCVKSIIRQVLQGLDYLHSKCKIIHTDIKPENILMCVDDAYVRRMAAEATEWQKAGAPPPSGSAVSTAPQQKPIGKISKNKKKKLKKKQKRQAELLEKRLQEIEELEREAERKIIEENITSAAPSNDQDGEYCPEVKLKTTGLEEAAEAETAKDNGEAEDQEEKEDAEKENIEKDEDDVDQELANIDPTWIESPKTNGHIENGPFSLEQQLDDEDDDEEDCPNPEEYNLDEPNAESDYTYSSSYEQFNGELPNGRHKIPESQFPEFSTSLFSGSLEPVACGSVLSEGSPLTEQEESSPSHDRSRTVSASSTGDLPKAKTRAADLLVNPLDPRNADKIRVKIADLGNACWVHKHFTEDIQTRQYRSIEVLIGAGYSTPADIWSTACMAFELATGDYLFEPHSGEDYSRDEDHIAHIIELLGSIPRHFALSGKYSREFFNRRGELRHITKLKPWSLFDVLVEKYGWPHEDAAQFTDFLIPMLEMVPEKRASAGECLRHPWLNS
For experiment [6], the target named is T3, STE20-related kinase adapter protein alpha (Homo sapiens) (UniProt Q7RTN6).
T3 sequence (whole entry): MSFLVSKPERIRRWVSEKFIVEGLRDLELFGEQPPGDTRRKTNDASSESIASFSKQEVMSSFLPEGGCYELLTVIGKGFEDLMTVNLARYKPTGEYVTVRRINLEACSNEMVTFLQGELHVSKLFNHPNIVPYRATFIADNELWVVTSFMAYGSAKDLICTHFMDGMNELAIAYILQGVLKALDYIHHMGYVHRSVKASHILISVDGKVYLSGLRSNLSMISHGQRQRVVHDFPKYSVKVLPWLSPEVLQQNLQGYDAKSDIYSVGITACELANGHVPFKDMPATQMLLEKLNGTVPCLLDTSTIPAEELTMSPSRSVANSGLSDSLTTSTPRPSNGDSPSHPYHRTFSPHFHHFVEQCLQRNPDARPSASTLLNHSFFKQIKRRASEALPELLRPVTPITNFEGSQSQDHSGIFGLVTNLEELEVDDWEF
In words: Selectivity interaction (Kinase panel (KiNativ target engagement assay in Jurkat cells)) EUB0001635a STRADA. It is filed as cell-based. The conditions noted are these: Selectivity number of off-targets 0.0, Selectivity number of targets 233.0, Source Knowledge https://www.sciencedirect.com/science/article/pii/S2451945619300674?via%3Dihub, at 1 µM.

In experiment [1], `N#Cc1cccc(-c2c[nH]c3ncnc(N4CCOCC4)c23)c1` returned a % of inhibition of 0%. Also, the % of control in experiment [2] is 18%. As for `Cc1cc([C@@H](C)Nc2ccccc2C(=O)O)c2nc(N3CCOCC3)cc(=O)n2c1` [AZD-6482], the % of control in experiment [3] is 100%. `CC[C@@H]1[C@H](F)C(=O)N[C@@H]1COc1nccc2cc(C(N)=O)c(OC)cc12` [ZIMLOVISERTIB]: the % of inhibition in experiment [4] was 41.1%. For `C=CC(=O)Nc1cccc(C(=O)Nc2ccc(Nc3cc(-c4[nH]c(SC)nc4C)ccn3)cc2)c1`, the % of control worked out at 82% in experiment [5] (at 1 µM) and 75% in experiment [5] (at 5 µM).

`C=CC(=O)Nc1ccc(C(=O)Nc2[nH]nc3c2CN(C(=O)N[C@H](CN(C)C)c2ccccc2)C3(C)C)cc1` came in with a % of engagement in experiment [6] of 2.1%.
